ChEMBL document CHEMBL5441456, “ASAP - SARS-CoV-2 nsp3 macrodomain dose response” (2024)
“And” between values parts separate entries of the source, which are not always exact repeats. Identical values can stand only once.

Target: Replicase polyprotein 1ab (Severe acute respiratory syndrome coronavirus 2, UniProt P0DTD1)
Experiment: Functional biochemical assay to identify treatments for viral infectious disease that targets SARS-COV-2 nsp3 macrodomain, whereby the mechanism of action displaces an ADP-Ribose modified peptide from the binding site. Utilizing a time-resolved fluorescence method to measure binding by reading the emitted fluorescence intensity in two wavelengths.

| SMILES | IC50 |
| --- | --- |
| CC(C)[C@H](Nc1cc(NCC(F)(F)F)ncn1)c1ccc2c(c1)S(=O)(=O)CCC2 | > 99.5 µM |
| Cc1nnc(Nc2ccc(C(=O)N[C@H]3c4cccc(O)c4C[C@H]3C(=O)O)cc2)o1 | > 99.5 µM |
| CC(C)[C@@H](Nc1ncnc2[nH]c(-c3ccc(-n4cccn4)cc3)cc12)c1ccc2c(c1)OCCO2 | > 99.5 µM |
| O=C(Nc1ncnc2c(C(=O)N[C@@H](c3cccs3)C3CCCC3)csc12)NC1CC1 | > 99.5 µM |
| Cc1ncc(-c2cc3c(N[C@@H](c4ccc5c(c4)OCCO5)C(C)C)ncnc3[nH]2)n1C | 0.674 µM and 0.711 µM |
| CNC(=O)c1cccc([C@@H](CC(=O)O)NC(=O)c2ncnc3[nH]ccc23)c1 | 18.7 µM and 17.4 µM |
| CCn1ncc(-c2cc3c(N[C@@H](c4ccc5c(c4)OCCO5)C(C)C)ncnc3[nH]2)c1C#N | 0.857 µM and 0.8 µM |
| CC(C)[C@@H](Nc1n[nH]c2ncccc12)c1ccc2c(c1)S(=O)(=O)CCC2 | 43.5 µM |
| CC(C)[C@@H](Nc1ncnc2[nH]c(C(=O)NC34CC(C#N)(C3)C4)cc12)c1ccc2c(c1)OCCO2 | 1.36 µM and 1.93 µM |
| O=C(Nc1ccc(C(=O)N[C@@H]2c3ccccc3C[C@@H]2C(=O)O)cc1)c1ccc(C(=O)NC2CC2)cc1 | > 99.5 µM |
| CC(C)[C@H](Nc1ncncc1Cl)c1ccc2c(c1)S(=O)(=O)CCC2 | > 99.5 µM |
| O[C@H]1CCCC[C@@H]1Nc1ncnc2[nH]ccc12 | 55.4 µM and 64.7 µM |
| c1nc(N[C@@H](c2ccc3c(c2)OCCO3)C2CCC2)c2cc[nH]c2n1 | 5.2 µM and 6.52 µM |
| CC(C)[C@H](Nc1ncnc(-n2cccn2)n1)c1ccc2c(c1)S(=O)(=O)CCC2 | > 99.5 µM |
| CC(C)[C@@H](Nc1ncncc1Cl)c1ccc2c(c1)S(=O)(=O)CCC2 | > 99.5 µM |
| CCNC(=O)c1cc2c(N[C@@H](CCc3cccc(NS(C)(=O)=O)c3)C(C)C)ncnc2[nH]1 | > 99.5 µM |
| COC(=O)c1c[nH]c2ncnc(N[C@@H](c3ccc4c(c3)OCCO4)C(C)C)c12 | 3.11 µM and 3.49 µM |
| CC(C)[C@@H](c1ccc2c(c1)OCCO2)N(C)c1ncnc2[nH]c(Br)cc12 | > 99.5 µM |
| Cc1nnn(C)c1-c1cc2c(N[C@@H](c3ccc4c(c3)S(=O)(=O)CCC4)C(C)C)ncnc2[nH]1 | 0.414 µM and 0.419 µM |
| NC(=O)C[C@H](NC(=O)c1ncnc2[nH]ccc12)c1ccc(Cl)cc1 | > 99.5 µM |
| CC(C)[C@@H](Nc1ncnc2[nH]c(C(=O)NC3(CF)COC3)cc12)c1ccc2c(c1)OCCO2 | 1.25 µM and 1.74 µM |
| CC(C)[C@H](Nc1ncnc2c1CNCC2)c1ccc2c(c1)S(=O)(=O)CCC2 | > 99.5 µM |

| SMILES | IC50 |
| --- | --- |
| CC(C)[C@@H](NC(=O)c1c[nH]c2c(NC(=O)NC3CC3)cccc12)C(F)F | > 99.5 µM |
| CC(C)[C@@H](Nc1ncnc2[nH]c(-c3cnn(C4CC4)c3)cc12)c1ccc2c(c1)OCCO2 | 0.998 µM and 1.23 µM and 1.12 µM |
| O=C(Nc1cccc2c(C(=O)N[C@@H](C(=O)O)c3ccc4c(c3)OCCO4)c[nH]c12)NC1CC1 | > 99.5 µM |
| O=C1NCCc2ccc(CNc3ncnc4[nH]ccc34)cc21 | > 99.5 µM |
| CC(C)[C@@H](Nc1ncnc2c1ccn2C)c1ccc2c(c1)OCCO2 | > 99.5 µM |
| CC(=O)N1[C@@H]2CC[C@H]1c1c(ncnc1N[C@@H](c1ccc3c(c1)S(=O)(=O)CCC3)C(C)C)C2 | > 99.5 µM |
| CC(C)Cc1ccc2c(NC(=O)c3ccc(NC(=O)NC4CC4)cc3)c(C(=O)O)sc2n1 | > 99.5 µM |
| Cc1cnn(C)c1NC(=O)c1cc2c(N[C@@H](c3ccc4c(c3)OCCO4)C(C)C)ncnc2[nH]1 | 27.3 µM and > 99.5 µM |
| Cc1cc(-c2cc3c(N[C@@H](c4ccc5c(c4)OCCO5)C(C)C)ncnc3[nH]2)[nH]n1 | 2.56 µM and 3.09 µM |
| Cc1[nH]c2ncnc(NC(=O)C3CC(C(F)(F)F)C3)c2c1C (stereo not drawn) | > 99.5 µM |
| Cc1cc(NCc2cnc3c(c2)NC(=O)CO3)cnc1C | > 124 µM |
| CC(C)[C@@H](Nc1ncnc2[nH]c3cc(F)ccc3c12)c1ccc2c(c1)OCCO2 | 8.54 µM and 10 µM |
| COCc1noc(C)c1-c1cc2c(N[C@@H](c3ccc4c(c3)OCCO4)C(C)C)ncnc2[nH]1 | > 99.5 µM |
| CC(C)[C@H](Nc1ncnc2[nH]c(-c3cnn(C)c3C#N)cc12)c1ccc2c(c1)S(=O)(=O)CCC2 | 0.018 µM and 0.015 µM and 0.013 µM |
| CC(C)OCCNC(=O)c1cc2c(=O)n3ccccc3nc2n1C | > 124 µM |
| CN(C)C(=O)c1cccc(S(=O)(=O)Nc2cnc3[nH]ccc3c2)c1 | > 99.5 µM |
| CCc1coc(Nc2ccc([C@@H](CC(=O)O)NC(=O)c3c[nH]c4ncncc34)cc2)n1 | 70.9 µM and 76.1 µM |
| CC(C)[C@@H](Nc1ncnc2[nH]c(-c3cnn(-c4ccc(F)cc4)c3)cc12)c1ccc2c(c1)OCCO2 | 27.4 µM and 26 µM |
| O=C(NCSC[C@@H](NC(=O)c1ncnc2[nH]ccc12)C(=O)O)c1ccccc1 | > 99.5 µM |
| CC(C)[C@@H](Nc1ncnc2[nH]ccc12)c1ccc2c(c1)S(=O)(=O)CCO2 | 0.181 µM |
| CC(C)[C@@H](Nc1ncnc2[nH]c(C(=O)NCC3(CO)CCC3)cc12)c1ccc2c(c1)OCCO2 | 1.29 µM and 2.35 µM |
